Source: patent US4357470A, “Cephalosporin compounds” (Taisho Pharmaceutical Co., Ltd., priority 1980, dated 1982)
Counter-ions that a name gives are not always drawn. Like-named read-outs stand apart in the source and are kept apart here.

What was measured:
[1] = system: Staphylococcus aureus FDA 209 P; experiment: Antibacterial activity, agar plate dilution method (MIC), S. aureus; format: cell-based; conditions: FDA209
Method: (§1) Antibacterial activities of the compounds of the present invention were tested about various microorganisms using an agar plate dilution method. Commercial cefazolin sodium was used as a control. The test results for 7-[D-α-(4-hydroxy-pyrazino[2,3-f]quinoline-3-carboxamido)-α-phenylacetamido]-3-(1-carboxymethyl-tetrazole-5-yl)thiomethyl-Δ^3 -cephem-4-carboxylic acid disodium salt (TC-203) and 7-[D-Δ-(4-hydroxy-pyrazino[2,3-f]quinoline-3-carboxamido)-Δ-(4-hydroxyphenyl)acetamido]-3-(1-carboxymethyl-tetrazole-5-yl)thiomethyl-Δ^3 -cephem-4-carboxylic acid disodium salt (TC-403) are expressed by MIC value (Minimum Inhibitory Concentration, μg/ml) and shown in Table 1.

Escherichia coli NIHJC-2 = experiment: Antibacterial activity, agar plate dilution method (MIC), E. coli; format: cell-based; conditions: NIHJC2
Method: as §1

[2] = system: Klebsiella pneumoniae 3K-2; experiment: Antibacterial activity, agar plate dilution method (MIC), K. pneumoniae; format: cell-based; conditions: 3K2
Method: as §1

[3] = system: Pseudomonas aeruginosa NC-5; experiment: Antibacterial activity, agar plate dilution method (MIC), P. aeruginosa; format: cell-based; conditions: NC5
Method: as §1

Proteus vulgaris IID 874 = experiment: Antibacterial activity, agar plate dilution method (MIC), P. vulgaris; format: cell-based; conditions: IID874
Method: as §1

in vivo = experiment: in vivo; set-up: species or system mice; conditions: mouse, im
Method: The compounds of the present invention were administered to mice intramuscularly and change of blood levels with lapse of time was determined. Commercial cefazolin sodium was used as a control.

[4] = Intraperitoneal acute toxicity in rats; format: in vivo; conditions: dose less than 5000 mg/kg of body weight
Source text: The compounds of the present invention are of low toxicity.

[5] = Escherichia coli NIHJC-2, agar plate dilution, read-out: MIC

Compound	MIC [1]	MIC (Escherichia coli NIHJC-2; [5])	MIC [2]	MIC [3]	MIC (Proteus vulgaris IID 874)	concentration at 0.25 h (in vivo)	concentration at 0.5 h (in vivo)	concentration at 1 h (in vivo)	concentration at 2 h (in vivo)	intraperitoneal acute toxicity [4]	MIC (Escherichia coli NIHJC-2; Escherichia coli)
O=C(O)Cn1nnnc1SCC1=C(C(=O)O)N2C(=O)[C@@H](NC(=O)[C@H](NC(=O)c3cnc4ccc5nccnc5c4c3O)c3ccccc3)[C@H]2SC1 [TC-203, 7-[D-α-(4-hydroxy-pyrazino[2,3-f]quinoline-3-carboxamido)-α-phenylacetamido]-3-(1-carboxymethyl-tetrazole-5-yl)thiomethyl-Δ^3-cephem-4-carboxylic acid disodium salt]	3.13 µg/mL	0.78 µg/mL	0.78 µg/mL	12.5 µg/mL	1.56 µg/mL	150 µg/mL	162 µg/mL	82 µg/mL	32 µg/mL		
O=C(O)Cn1nnnc1SCC1=C(C(=O)O)N2C(=O)[C@@H](NC(=O)[C@H](NC(=O)c3cnc4ccc5nccnc5c4c3O)c3ccc(O)cc3)[C@H]2SC1 [TC-403, 7-[D-Δ-(4-hydroxy-pyrazino[2,3-f]quinoline-3-carboxamido)-Δ-(4-hydroxyphenyl)acetamido]-3-(1-carboxymethyl-tetrazole-5-yl)thiomethyl-Δ^3-cephem-4-carboxylic acid disodium salt]	6.25 µg/mL	1.56 µg/mL	1.56 µg/mL	12.5 µg/mL	3.13 µg/mL	92 µg/mL	180 µg/mL	62 µg/mL	42 µg/mL	hardly shows any intraperitoneal acute toxicity in rats at a dose less than 5000 mg/kg of body weight	
Cc1nnc(SCC2=C(C(=O)O)N3C(=O)[C@@H](NC(=O)Cn4cnnn4)[C@H]3SC2)s1 [cefazolin sodium, reference compound]	< 0.1 µg/mL		> 100 µg/mL	> 100 µg/mL	> 100 µg/mL	62 µg/mL	42 µg/mL	5.5 µg/mL			1.56 µg/mL
